Assay results as given in PubChem BioAssay (NCI).
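Compound exposure: 48 hours, 5 concentrations, 96-well plates. Definition used: TGI = concentration required for complete inhibition of growth.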

Experiments:
Assay in all cases: DTP human tumour cell line panel, 48 h
[1] = tested on: NCI-H226 lung
[2] = tested on: UO-31 renal
[3] = tested on: DMS 273 small cell lung
[4] = tested on: OVCAR-5 ovarian
[5] = tested on: SNB-78 CNS
[6] = tested on: HOP-62 NSCLC
[7] = tested on: IGROV1 ovarian
[8] = tested on: OVCAR-8 ovarian
[9] = tested on: SF-268 CNS
[10] = tested on: COLO 205 colon
[11] = tested on: TK-10 renal
[12] = tested on: SW-620 colon
[13] = tested on: LXFL 529 NSCLC
[14] = tested on: K-562 leukemia
[15] = tested on: KM12 colon
[16] = tested on: CAKI-1 renal
[17] = tested on: ACHN renal
[18] = tested on: OVCAR-4 ovarian
[19] = tested on: A498 renal
[20] = tested on: SF-295 CNS
[21] = tested on: SR leukemia
[22] = tested on: UACC-257 melanoma
[23] = tested on: SNB-19 CNS
[24] = tested on: DLD-1 colon
[25] = tested on: SNB-75 CNS
[26] = tested on: U251 CNS
[27] = tested on: EKVX NSCLC
[28] = tested on: SK-MEL-28 melanoma
[29] = tested on: 786-0 renal
[30] = tested on: MALME-3M melanoma
[31] = tested on: DMS 114 small cell lung
[32] = tested on: OVCAR-3 ovarian
[33] = tested on: CCRF-CEM leukemia
[34] = tested on: HOP-18 NSCLC
[35] = tested on: HL-60(TB) leukemia
[36] = tested on: MOLT-4 leukemia
[37] = tested on: KM20L2 colon
[38] = tested on: LOX IMVI melanoma
[39] = tested on: NCI-H460 lung
[40] = tested on: SK-OV-3 ovarian
[41] = tested on: HOP-92 NSCLC
[42] = tested on: A549 NSCLC
[43] = tested on: M19-MEL melanoma
[44] = tested on: HCC-2998 colon
[45] = tested on: RPMI-8226 leukemia
[46] = tested on: HT29 colon
[47] = tested on: SF-539 CNS
[48] = tested on: M14 melanoma
[49] = tested on: SK-MEL-2 melanoma
[50] = tested on: HCT-15 colon
[51] = tested on: NCI-H23 lung
[52] = tested on: NCI-H522 lung
[53] = tested on: HCT-116 colon
[54] = tested on: SK-MEL-5 melanoma
[55] = tested on: RXF 393 renal
[56] = tested on: UACC-62 melanoma
[57] = tested on: SN12C renal
[58] = tested on: XF 498 CNS

SMILES: C[C@H](O)CCC(=O)c1ccoc1
- TGI [1]: > 100 µM
- TGI [2]: > 100 µM
- TGI [3]: > 100 µM
- TGI [4]: > 100 µM
- TGI [5]: > 100 µM
- TGI [6]: > 100 µM
- TGI [7]: > 100 µM
- TGI [8]: > 100 µM
- TGI [9]: > 100 µM
- TGI [10]: > 100 µM
- TGI [11]: > 100 µM
- TGI [12]: > 100 µM
- TGI [13]: > 100 µM
- TGI [14]: > 100 µM
- TGI [15]: > 100 µM
- TGI [16]: > 100 µM
- TGI [17]: > 100 µM
- TGI [18]: > 100 µM
- TGI [19]: > 100 µM
- TGI [20]: > 100 µM
- TGI [21]: > 100 µM
- TGI [22]: > 100 µM
- TGI [23]: > 100 µM
- TGI [24]: > 100 µM
- TGI [25]: > 100 µM
- TGI [26]: > 100 µM
- TGI [27]: > 100 µM
- TGI [28]: > 100 µM
- TGI [29]: > 100 µM
- TGI [30]: > 100 µM
- TGI [31]: > 100 µM
- TGI [32]: > 100 µM
- TGI [33]: > 100 µM
- TGI [34]: > 100 µM
- TGI [35]: > 100 µM
- TGI [36]: > 100 µM
- TGI [37]: > 100 µM
- TGI [38]: > 100 µM
- TGI [39]: > 100 µM
- TGI [40]: > 100 µM
- TGI [41]: > 100 µM
- TGI [42]: > 100 µM
- TGI [43]: > 100 µM
- TGI [44]: > 100 µM
- TGI [45]: > 100 µM
- TGI [46]: > 100 µM
- TGI [47]: > 100 µM
- TGI [48]: > 100 µM
- TGI [49]: > 100 µM
- TGI [50]: > 100 µM
- TGI [51]: > 100 µM
- TGI [52]: > 100 µM
- TGI [53]: > 100 µM
- TGI [54]: > 100 µM
- TGI [55]: > 100 µM
- TGI [56]: > 100 µM
- TGI [57]: > 100 µM

SMILES: Cc1nc2ccccc2c(=O)n1/N=C(\N=Nc1ccc(Cl)cc1)c1ccc(N(C)C)cc1
- TGI [2]: > 100 µM
- TGI [3]: > 100 µM
- TGI [6]: > 100 µM
- TGI [7]: > 100 µM
- TGI [8]: > 100 µM
- TGI [9]: > 100 µM
- TGI [10]: > 100 µM
- TGI [11]: > 100 µM
- TGI [12]: > 100 µM
- TGI [13]: > 100 µM
- TGI [14]: > 100 µM
- TGI [16]: > 100 µM
- TGI [17]: > 100 µM
- TGI [19]: > 100 µM
- TGI [20]: > 100 µM
- TGI [23]: > 100 µM
- TGI [24]: > 100 µM
- TGI [58]: 96.3 µM
- TGI [27]: > 100 µM
- TGI [28]: > 100 µM
- TGI [29]: > 100 µM
- TGI [31]: > 100 µM
- TGI [33]: > 100 µM
- TGI [34]: > 100 µM
- TGI [36]: > 100 µM
- TGI [37]: > 100 µM
- TGI [38]: > 100 µM
- TGI [39]: > 100 µM
- TGI [40]: > 100 µM
- TGI [42]: > 100 µM
- TGI [43]: > 100 µM
- TGI [46]: > 100 µM
- TGI [47]: > 100 µM
- TGI [50]: > 100 µM
- TGI [51]: > 100 µM
- TGI [52]: > 100 µM
- TGI [53]: > 100 µM
- TGI [54]: > 100 µM
- TGI [55]: > 100 µM
- TGI [56]: > 100 µM
- TGI [57]: > 100 µM
